In ChEMBL document CHEMBL5038652, “Structural Rigidification of N-Aryl-pyrroles into Indoles Active against Intracellular and Drug-Resistant Mycobacteria” (ACS Med Chem Lett, 2022):
≈ marks a conversion by molar mass, not a printed value.

How the values were obtained:
[1] = system: Mycobacterium tuberculosis; test: Antimycobacterial activity against Mycobacterium tuberculosis H37Rv assessed as reduction in bacterial growth incubated for 7 days by resazurin dye based assay; assay type: functional; conditions: 168 h, time 7 day
[2] = Selectivity index, ratio of IC50 for mouse J774.A1 cells to MIC for Mycobacterium tuberculosis H37Rv; assay type: toxicity; conditions: read-out: Selectivity Index
[3] = Cytotoxicity against mouse J774.A1 cells assessed as reduction in cell viability after 24 hrs by resazurin dye based assay; assay type: toxicity
[4] = system: Mycobacterium tuberculosis; test: Antimycobacterial activity against Mycobacterium tuberculosis H37Rv clinical isolates 1 assessed as reduction in bacterial growth incubated for 7 days by resazurin dye based assay; assay type: functional; conditions: 168 h, time 7 day
[5] = system: Mycobacterium tuberculosis; test: Antimycobacterial activity against Mycobacterium tuberculosis H37Rv clinical isolates 4 assessed as reduction in bacterial growth incubated for 7 days by resazurin dye based assay; assay type: functional; conditions: 168 h, time 7 day
[6] = system: Mycobacterium tuberculosis; test: Antimycobacterial activity against Mycobacterium tuberculosis H37Rv clinical isolates 3 assessed as reduction in bacterial growth incubated for 7 days by resazurin dye based assay; assay type: functional; conditions: 168 h, time 7 day
[7] = system: Mycobacterium tuberculosis; test: Antimycobacterial activity against Mycobacterium tuberculosis H37Rv clinical isolates 2 assessed as reduction in bacterial growth incubated for 7 days by resazurin dye based assay; assay type: functional; conditions: 168 h, time 7 day
[8] = system: Mycobacterium tuberculosis; test: Antimycobacterial activity against Mycobacterium tuberculosis H37Rv infected in mouse J774.A1 cells assessed as log reduction of bacterial growth at 1X MIC measured after 3 days by visual colony counting analysis; assay type: functional; conditions: time 3 day

Compound	MIC [1] [µg/mL]	other results
c1ccc2c(CNC3CCCCCC3)c[nH]c2c1	> 25	
Cc1cc(CNC2CCCCC2)c(C)n1-c1ccc(Cl)cc1	0.2 (≈ 0.631 µM)	
Cc1cc(CNCC2CCCCC2)c(C)n1-c1ccc(Cl)cc1	0.3 (≈ 0.907 µM)	
Cc1ccc2[nH]cc(CNC3CCCCC3)c2c1	> 25	
CC(C)=CCC/C=C(\C)Cn1cc(CNC2CCCCCC2)c2ccc(Cl)cc21	2.75 (≈ 6.66 µM)	
Clc1ccc2[nH]cc(CNC3CCCCC3)c2c1	16.3 (≈ 62.1 µM)	
Clc1ccc2c(CNCc3ccccc3)c[nH]c2c1	22.8 (≈ 84.3 µM)	
Clc1ccc2c(CNCc3ccccc3)cn(C3CCCCCCC3)c2c1	19.7 (≈ 51.8 µM)	
Clc1ccc2c(CNC3CCCCCC3)c[nH]c2c1	17.1 (≈ 61.9 µM)	
Cn1cc(CNC2CCCCC2)c2ccc(Cl)cc21	> 25	
Clc1ccc2c(CNC3CCCCC3)c[nH]c2c1	> 25	
CC(C)n1cc(CNCC2CCCCC2)c2ccc(Cl)cc21	6.09 (≈ 19.1 µM)	selectivity ratio [2]: 2.39; IC50 at 24 h [3]: 14.6 µg/mL (≈ 45.7 µM)
CC(C)n1cc(CNC2CCCCCCC2)c2ccc(Cl)cc21	14 (≈ 42.1 µM)	
Clc1ccc2c(CNCC3CCCCC3)c[nH]c2c1	24.2 (≈ 87.4 µM)	
c1ccc2c(CNC3CCCCCCC3)c[nH]c2c1	> 25	
Cn1cc(CNCC2CCCCC2)c2ccc(Cl)cc21	19.1 (≈ 65.6 µM)	
CC(C)n1cc(CNC2CCCCC2)c2ccc(Cl)cc21	23.9 (≈ 78.3 µM)	
CC(C)n1cc(CNC2CCCCCC2)c2ccc(Cl)cc21	16.3 (≈ 51.2 µM)	
Cn1cc(CNCc2ccccc2)c2ccc(Cl)cc21	> 25	
Clc1ccc2c(CNCC3CCCCC3)cn(C3CCCCCCC3)c2c1	1.56 (≈ 4.03 µM)	
Cc1ccc2[nH]cc(CNC3CCCCCC3)c2c1	24.7 (≈ 96.4 µM)	
Clc1ccc2c(CNC3C4CC5CC(C4)CC3C5)c[nH]c2c1 (stereo not given)	6.07 (≈ 19.3 µM)	selectivity ratio [2]: 1.24; IC50 at 24 h [3]: 7.51 µg/mL (≈ 23.9 µM)
Cn1cc(CNC2C3CC4CC(C3)CC2C4)c2ccc(Cl)cc21 (stereo not given)	10.9 (≈ 33.2 µM)	selectivity ratio [2]: 1.48; IC50 at 24 h [3]: 16.2 µg/mL (≈ 49.2 µM)
c1ccc2c(CNCC3CCCCC3)c[nH]c2c1	> 25	
Clc1ccc2c(CNC3CCCCCCC3)c[nH]c2c1	> 25	
Cn1cc(CNC2CCCCCCC2)c2ccc(Cl)cc21	23.2 (≈ 76.3 µM)	
NCC[C@H](O)C(=O)N[C@@H]1C[C@H](N)[C@@H](O[C@H]2O[C@H](CN)[C@@H](O)[C@H](O)[C@H]2O)[C@H](O)[C@H]1O[C@H]1O[C@H](CO)[C@@H](O)[C@H](N)[C@H]1O [AMIKACIN]		MIC [4]: 0.32 µg/mL (≈ 0.546 µM); MIC [5]: 0.14 µg/mL (≈ 0.239 µM); MIC [6]: > 25 µg/mL; MIC [7]: 23.1 µg/mL (≈ 39.5 µM)
NNC(=O)c1ccncc1 [ISONIAZID]		MIC [4]: > 25 µg/mL; MIC [5]: 0.25 µg/mL (≈ 1.82 µM); MIC [6]: > 25 µg/mL; MIC [7]: > 25 µg/mL
COc1c(N2C[C@@H]3CCCN[C@@H]3C2)c(F)cc2c(=O)c(C(=O)O)cn(C3CC3)c12 [MOXIFLOXACIN]		Activity [8]: 0.11 log10CFU
CO[C@H]1/C=C/O[C@@]2(C)Oc3c(C)c(O)c4c(O)c(c(/C=N/N5CCN(C)CC5)c(O)c4c3C2=O)NC(=O)/C(C)=C\C=C\[C@H](C)[C@H](O)[C@@H](C)[C@@H](O)[C@@H](C)[C@H](OC(C)=O)[C@@H]1C [RIFAMPIN]		MIC [4]: > 25 µg/mL; MIC [5]: < 0.1 µg/mL; MIC [6]: > 25 µg/mL; MIC [7]: 0.65 µg/mL (≈ 0.79 µM)
